According to patent US20260209215A1, “GLYCINE DERIVATIVES WITH P2X4 RECEPTOR-BLOCKING ACTIVITY AS DIAGNOSTICS AND FOR THE TREATMENT OF PAIN, INFLAMMATION, CANCER, AND OTHER P2X4 RECEPTOR-RELATED DISEASES” (RHEINISCHE-FRIEDRICH-WILHELMS-UNIVERSITÄT BONN, priority 2022, published 2026):

Biological target: T1, P2X4 receptor (Homo sapiens, UniProt Q99571)
T1 construct: expressed in transfected cells; host or cells: 1321N1 astrocytoma cells, retroviral vector pQCXIN, G418 selection, monoclones
T1 sequence (Q99571 1-388): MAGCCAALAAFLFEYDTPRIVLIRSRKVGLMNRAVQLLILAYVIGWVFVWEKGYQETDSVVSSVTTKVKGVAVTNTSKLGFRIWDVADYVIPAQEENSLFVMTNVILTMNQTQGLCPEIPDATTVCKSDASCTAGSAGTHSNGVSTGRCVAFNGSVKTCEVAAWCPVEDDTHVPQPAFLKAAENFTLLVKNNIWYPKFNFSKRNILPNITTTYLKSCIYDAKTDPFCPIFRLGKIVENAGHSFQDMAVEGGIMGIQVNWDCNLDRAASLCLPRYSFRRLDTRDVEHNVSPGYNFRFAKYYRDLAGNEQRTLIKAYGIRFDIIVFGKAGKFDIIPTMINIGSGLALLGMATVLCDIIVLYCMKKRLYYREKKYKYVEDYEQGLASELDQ
Assay: Measurement of Ca2+ influx in transfected 1321N1 astrocytoma cells (P2X4 inhibitory potency)
Format: cell-based
Details: agonist-mediated Ca2+ influx, FLUO-4, 1321N1 astrocytoma cells; antagonists added 30 min before agonist
Source text: The rat, mouse, and human P2X4 DNA, respectively, were cloned into the retroviral vector pQCXIN. 1321N1 Astrocytoma cells were transfected with the DNA using a retroviral system as described previously. In brief, GP+envAM12 packaging cells were first transiently co-transfected with a retroviral vector to generate the retrovirus and with a vesicular stomatitis virus G protein (VSV-G) to pseudotype the virus and to increase their infection efficiency. The viruses containing the rat, mouse or human P2X4 receptor sequence were then used to create a stable astrocytoma cell line. P2X4 receptor-expressing cells were selected with G418 ([…]).
The selection of monoclones for rat and human P2X4 receptors was performed using the limited dilution method by plating the cells at very low cell densities (1 cell clone per well in 96-well plates). Cells were counted, and then several dilutions were made to obtain a concentration of […]. We subsequently added 100 µL of the diluted cell suspension into each well expecting to obtain on average 1 cell per well. After a few days the wells that contained single clones were labeled and transferred into 24 well plates. More than 20 clones were selected for each cell line and characterized in calcium influx assay.
Measurement of Ca^2+ influx in transfected 1321N1 astrocytoma cells
P2X receptor function was determined on the basis of agonist-mediated increases in cytosolic Ca^2+ concentration. The fluorescent Ca^2+chelating dye FLUO-4 was used as an indicator of the relative levels of intracellular Ca^2+ in a 96-well format using a fluorescence imaging plate reader (Novostar, BMG, Germany). Cells were grown to confluence in 96-well black-walled tissue culture plates and loaded with FLUO-4 AM ([…]) in Hank's balanced salt solution (HBSS, containing 10 mM HEPES, pH 7.3, and 1% Pluronic® F127) for 1 h at 23° C. After incubation, the loaded cells were washed with the same buffer to remove extracellular FLUO-4 AM. Compound solutions were prepared in HBSS (containing 20 mM HEPES, pH 7.3) or DMSO depending on their solubility. […] Fluorescence intensity was measured at 520 nm for 30 s at 0.4 s intervals. Buffer or test compounds were injected sequentially into separate wells using the automatic pipetting device. At least three independent experiments were performed in triplicate or duplicate. Antagonists were added 30 min before the addition of agonists. The assays were performed in a final volume of 200 μL. Compounds were tested at 7-8 different concentrations spanning three orders of magnitude of concentrations. Statistical significances were calculated using the unpaired two-tailed t-test.

IC50 [nM] | SMILES
40 to 69 | Cc1ccc(-c2nc(C3CC3)no2)cc1NCC(=O)N1CCc2c(OCC(C)(C)O)cccc21 [Example 50, 2-((5-(3-cyclopropyl-1,2,4-oxadiazol-5-yl)-2-methylphenyl)amino)-1-(4-(2-hydroxy-2-methylpropoxy)-indolin-1-yl)ethan-1-on]
40 to 69 | Cc1nsc(-c2ccc(C)c(NCC(=O)N3CCc4c3cccc4S(N)(=O)=O)c2)n1 [Example 51, 1-((2-methyl-5-(3-methyl-1,2,4-thiadiazol-5-yl)phenyl)glycyl)-indoline-4-sulfonamide]
40 to 69 | Cc1nsc(-c2ccc(C)c(NCC(=O)N3CCc4ccccc43)c2)n1 [Example 52, 1-(indolin-1-yl)-2-((2-methyl-5-(3-methyl-1,2,4-thiadiazol-5-yl)phenyl)amino)ethan-1-one]
20 to 39 | Cc1noc(-c2ccc(F)c(NCC(=O)N3CCc4c3cccc4C(C)(C)O)c2)n1 [Example 53, 2-((2-fluoro-5-(3-methyl-1,2,4-oxadiazol-5-yl)phenyl)amino)-1-(4-(2-hydroxypropan-2-yl)-indolin-1-yl)ethan-1-one]
70 to 99 | Cc1nsc(-c2ccc(C)c(NCC(=O)N3CCc4c3cccc4N3CC(=O)NC3=O)c2)n1 [Example 54, 1-(1-((2-methyl-5-(3-methyl-1,2,4-thiadiazol-5-yl)phenyl)glycyl)indolin-4-yl) imidazolidine-2,4-dione]
0.1 to 19 | Cc1nsc(-c2ccc(C)c(NCC(=O)N3CCc4c3cccc4C3(O)COC3)c2)n1 [Example 55, 1-(4-(3-hydroxyoxetan-3-yl)indolin-1-yl)-2-((2-methyl-5-(3-methyl-1,2,4-thiadiazol-5-yl)phenyl)amino)ethan-1-one]
0.1 to 19 | CCc1nsc(-c2ccc(F)c(NCC(=O)N3CCc4c(N5CC(O)C5)cccc43)c2)n1 [Example 56, 2-((5-(3-ethyl-1,2,4-thiadiazol-5-yl)-2-fluorophenyl)amino)-1-(4-(3-hydroxyazetidin-1-yl)indolin-1-yl)ethan-1-one]
> 100 | COC(=O)C1CN(C(=O)CNc2cc(-c3nc(C)ns3)ccc2C)c2ccccc21 (centres unmarked) [Example 57, methyl 1-((2-methyl-5-(3-methyl-1,2,4-thiadiazol-5-yl)-phenyl)glycyl)indoline-3-carboxylate]
> 100 | Cc1nsc(-c2ccc(C)c(NCC(=O)N3CC(CCO)c4ccccc43)c2)n1 (centres unmarked) [Example 58, 1-(3-(2-hydroxyethyl)indolin-1-yl)-2-((2-methyl-5-(3-methyl-1,2,4-thiadiazol-5-yl)phenyl)amino)ethan-1-one]
> 100 | CNC(=O)C1CN(C(=O)CNc2cc(-c3nc(C)ns3)ccc2C)c2ccccc21 (centres unmarked) [Example 59, N-methyl-1-((2-methyl-5-(3-methyl-1,2,4-thiadiazol-5-yl)phenyl)glycyl) indoline-3-carboxamide]
40 to 69 | Cc1noc(-c2ccc(F)c(NCC(=O)N3CCc4c3cccc4C(C)(O)CO)c2)n1 (centres unmarked) [Example 60, 1-(4-(1,2-dihydroxypropan-2-yl)indolin-1-yl)-2-((2-fluoro-5-(3-methyl-1,2,4-oxadiazol-5-yl)phenyl)amino)ethan-1-one]
0.1 to 19 | Cc1ccc(-c2nc(C(F)F)ns2)cc1NCC(=O)N1CCc2c1cccc2C(C)(O)CO (centres unmarked) [Example 61, 2-((5-(3-(difluoromethyl)-1,2,4-thiadiazol-5-yl)-2-methylphenyl)amino)-1-(4-(1,2-dihydroxypropan-2-yl)indolin-1-yl)ethan-1-one]
0.1 to 19 | Cc1nsc(-c2ccc(C)c(NCC(=O)N3CCc4c3cccc4C(C)(F)CO)c2)n1 (centres unmarked) [Example 63, 1-(4-(2-fluoro-1-hydroxypropan-2-yl)indolin-1-yl)-2-((2-methyl-5-(3-methyl-1,2,4-thiadiazol-5-yl)phenyl)amino)ethan-1-one]
0.1 to 19 | Cc1nsc(-c2ccc(C)c(NCC(=O)N3CCc4c3cccc4[C@@](C)(O)CO)c2)n1 [Example 64, 1-(4-(1,2-dihydroxypropan-2-yl)indolin-1-yl)-2-((2-methyl-5-(3-methyl-1,2,4-thiadiazol-5-yl)phenyl)amino)ethan-1-one]
